From paper PMC10765884, “MC180295 is a highly potent and selective CDK9 inhibitor with preclinical in vitro and in vivo efficacy in cancer” (Clinical Epigenetics, 2024)

Key:
[1] = molecular target: T1, CDK16/cyclin Y (PCTAIRE) (Homo sapiens, UniProt Q00536); test: CDK enzymatic assay; format: biochemical; details: Fig. 1A
T1 construct: purchased Reaction Biology Corp
Method: (§1) CDK enzymatic assays were performed by Reaction Biology Corp. (Malvern, PA), using 10 µM ATP for determining MC180295 IC50 values for each CDK family member for which assays were available. Kinase enzymatic assays were also performed by Nanosyn (Santa Clara, CA), using microfluidic technology and MC180295 IC50 curves against 10 CDKs. Selectivity against CDK9 was confirmed for the enantiomers at Reaction Biology Corp. (Malvern, PA).

[2] = molecular target: T2, CDK18/cyclin Y (PCTK3) (Homo sapiens, UniProt Q07002); test: CDK enzymatic assay; format: biochemical; details: Fig. 1A
T2 construct: purchased Reaction Biology Corp
Method: as §1

[3] = molecular target: T3, CDK9/cyclin T2 (Homo sapiens, UniProt P50750); test: CDK enzymatic assay; format: biochemical; details: Fig. 1A
T3 construct: purchased Reaction Biology Corp
Method: as §1

[4] = molecular target: T4, CDK14/cyclin Y (PFTK1) (Homo sapiens, UniProt O94921); test: CDK enzymatic assay; format: biochemical; details: Fig. 1A
T4 construct: purchased Reaction Biology Corp
Method: as §1

[5] = molecular target: T5, CDK17/cyclin Y (PCTK2) (Homo sapiens, UniProt Q00537); test: CDK enzymatic assay; format: biochemical; details: Fig. 1A
T5 construct: purchased Reaction Biology Corp
Method: as §1

[6] = molecular target: T6, CDK3/cyclin E2 (Homo sapiens, UniProt Q00526); test: CDK enzymatic assay; format: biochemical; details: Fig. 1A
T6 construct: purchased Reaction Biology Corp
Method: as §1

[7] = test system: BT474; test: Growth inhibition (cell counting, day 5); format: cell-based; details: Homo sapiens, BT-474; Breast
Method: (§2) The live-cell assay for GFP reactivation in YB5 cells was done as previously described. Cells were treated with a single dose of drug 24 h after seeding at low density, and GFP fluorescence measured in a Millipore Guava flow cytometer (EMD, Millipore) instrument, or by imaging in a Cytation instrument (Agilent). Cancer cell lines (listed in Additional file 1: Fig. S1A) were obtained from ATCC or the Temple/Fox Chase Cellular Repository and cultured in the recommended medium. To measure growth inhibition, cells were seeded in 96-well plates at 40% confluency. Fresh medium was changed the next day and drugs were added directly. Drug-free fresh medium was changed on the fourth day. The cells were collected on day 5 by trypsin, suspended in medium, mixed with trypan blue (Thermo Fisher Scientific) (1:1 ratio), and counted using a LUNA II automated cell counter. Each sample was counted at least three times, and average numbers used for the analysis. Each treatment condition was performed in biological triplicates.

[8] = test system: LOVO; test: Growth inhibition (cell counting, day 5); format: cell-based; details: Homo sapiens, Colon
Method: as §2

[9] = test system: Cama-1; test: Growth inhibition (cell counting, day 5); format: cell-based; details: Homo sapiens, Breast
Method: as §2

[10] = test system: A2058; test: Growth inhibition (cell counting, day 5); format: cell-based; details: Homo sapiens, Melanoma
Method: as §2

[11] = test system: HT29; test: Growth inhibition (cell counting, day 5); format: cell-based; details: Homo sapiens, HT-29; Colon
Method: as §2

[12] = test system: MCF7; test: Growth inhibition (cell counting, day 5); format: cell-based; details: Homo sapiens, Breast
Method: as §2

[13] = test system: VACCC257; test: Growth inhibition (cell counting, day 5); format: cell-based; details: Melanoma
Method: as §2

[14] = test system: HCC2218; test: Growth inhibition (cell counting, day 5); format: cell-based; details: Homo sapiens, Breast
Method: as §2

[15] = test system: DU145; test: Growth inhibition (cell counting, day 5); format: cell-based; details: Homo sapiens, DU-145; Prostate
Method: as §2

[16] = test system: HCT116; test: Growth inhibition (cell counting, day 5); format: cell-based; details: Homo sapiens, HCT-116; Colon
Method: as §2

[17] = test system: Raji; test: Growth inhibition (cell counting, day 5); format: cell-based; details: Homo sapiens, Leukemia
Method: as §2

[18] = test system: BT549; test: Growth inhibition (cell counting, day 5); format: cell-based; details: Homo sapiens, BT-549; Breast
Method: as §2

[19] = test system: THP-1; test: Growth inhibition (cell counting, day 5); format: cell-based; details: Homo sapiens, Leukemia
Method: as §2

[20] = test system: SW480; test: Growth inhibition (cell counting, day 5); format: cell-based; details: Homo sapiens, Colon
Method: as §2

[21] = test system: HTB126; test: Growth inhibition (cell counting, day 5); format: cell-based; details: Breast
Method: as §2

[22] = test system: 451LU; test: Growth inhibition (cell counting, day 5); format: cell-based; details: Melanoma
Method: as §2

[23] = test system: Jurkat; test: Growth inhibition (cell counting, day 5); format: cell-based; details: Homo sapiens, Leukemia
Method: as §2

[24] = test system: RKO; test: Growth inhibition (cell counting, day 5); format: cell-based; details: Homo sapiens, Colon
Method: as §2

[25] = test system: UC16; test: Growth inhibition (cell counting, day 5); format: cell-based; details: Bladder
Method: as §2

[26] = test system: HL-60; test: Growth inhibition (cell counting, day 5); format: cell-based; details: Homo sapiens, Leukemia
Method: as §2

[27] = test system: KM12; test: Growth inhibition (cell counting, day 5); format: cell-based; details: Homo sapiens, Colon
Method: as §2

[28] = test system: A375; test: Growth inhibition (cell counting, day 5); format: cell-based; details: Homo sapiens, A-375; Melanoma
Method: as §2

[29] = test system: SW48; test: Growth inhibition (cell counting, day 5); format: cell-based; details: Homo sapiens, Colon
Method: as §2

[30] = test system: HCCC1937; test: Growth inhibition (cell counting, day 5); format: cell-based; details: Breast
Method: as §2

[31] = test system: WM88; test: Growth inhibition (cell counting, day 5); format: cell-based; details: Melanoma
Method: as §2

[32] = test system: CaCO2; test: Growth inhibition (cell counting, day 5); format: cell-based; details: Homo sapiens, Caco-2; Colon
Method: as §2

[33] = test system: MV4-11; test: Growth inhibition (cell counting, day 5); format: cell-based; details: Homo sapiens, Leukemia
Method: as §2

[34] = test system: SKBR3; test: Growth inhibition (cell counting, day 5); format: cell-based; details: Homo sapiens, SK-BR-3; Breast
Method: as §2

[35] = test system: WM983B; test: Growth inhibition (cell counting, day 5); format: cell-based; details: Melanoma
Method: as §2

[36] = test system: KG-1a; test: Growth inhibition (cell counting, day 5); format: cell-based; details: Homo sapiens, Leukemia
Method: as §2

[37] = test system: J-Tag; test: Growth inhibition (cell counting, day 5); format: cell-based; details: Leukemia
Method: as §2

[38] = test system: CT26.CL25; test: Growth inhibition (cell counting, day 5); format: cell-based; details: Mus musculus; Colon
Method: as §2

[39] = test system: M14; test: Growth inhibition (cell counting, day 5); format: cell-based; details: Homo sapiens, Melanoma
Method: as §2

[40] = test system: OCI-AML3; test: Growth inhibition (cell counting, day 5); format: cell-based; details: Homo sapiens, OCI-AML-3; Leukemia
Method: as §2

[41] = test system: MOLM-13; test: Growth inhibition (cell counting, day 5); format: cell-based; details: Homo sapiens, Leukemia
Method: as §2

[42] = test system: UC3; test: Growth inhibition (cell counting, day 5); format: cell-based; details: Bladder
Method: as §2

[43] = test system: UC6; test: Growth inhibition (cell counting, day 5); format: cell-based; details: Bladder
Method: as §2

T5 sequence (Q00537 whole entry): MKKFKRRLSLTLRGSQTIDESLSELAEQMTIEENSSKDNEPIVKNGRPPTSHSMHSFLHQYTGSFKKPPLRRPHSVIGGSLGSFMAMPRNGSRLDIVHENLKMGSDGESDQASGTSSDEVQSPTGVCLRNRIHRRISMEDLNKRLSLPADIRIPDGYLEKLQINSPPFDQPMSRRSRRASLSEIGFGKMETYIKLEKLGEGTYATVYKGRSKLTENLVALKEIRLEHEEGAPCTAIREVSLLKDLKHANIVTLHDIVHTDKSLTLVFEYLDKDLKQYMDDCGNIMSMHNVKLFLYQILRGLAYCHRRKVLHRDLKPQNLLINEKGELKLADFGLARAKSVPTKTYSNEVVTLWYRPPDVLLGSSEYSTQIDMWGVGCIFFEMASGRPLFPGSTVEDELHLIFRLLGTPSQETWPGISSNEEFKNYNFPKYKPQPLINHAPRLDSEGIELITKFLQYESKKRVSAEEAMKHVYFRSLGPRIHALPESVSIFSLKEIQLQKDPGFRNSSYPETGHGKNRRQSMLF
T5 sequence (Q8ND76 whole entry partner): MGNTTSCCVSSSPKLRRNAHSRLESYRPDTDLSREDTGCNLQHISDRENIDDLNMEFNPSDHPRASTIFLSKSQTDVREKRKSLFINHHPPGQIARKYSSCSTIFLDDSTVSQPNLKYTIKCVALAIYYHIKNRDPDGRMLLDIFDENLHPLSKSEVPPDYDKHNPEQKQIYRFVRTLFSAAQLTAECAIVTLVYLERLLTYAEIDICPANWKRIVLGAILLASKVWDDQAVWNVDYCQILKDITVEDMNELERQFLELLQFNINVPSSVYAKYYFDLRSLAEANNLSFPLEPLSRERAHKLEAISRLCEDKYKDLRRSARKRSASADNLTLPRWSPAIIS
T6 sequence (Q00526 whole entry): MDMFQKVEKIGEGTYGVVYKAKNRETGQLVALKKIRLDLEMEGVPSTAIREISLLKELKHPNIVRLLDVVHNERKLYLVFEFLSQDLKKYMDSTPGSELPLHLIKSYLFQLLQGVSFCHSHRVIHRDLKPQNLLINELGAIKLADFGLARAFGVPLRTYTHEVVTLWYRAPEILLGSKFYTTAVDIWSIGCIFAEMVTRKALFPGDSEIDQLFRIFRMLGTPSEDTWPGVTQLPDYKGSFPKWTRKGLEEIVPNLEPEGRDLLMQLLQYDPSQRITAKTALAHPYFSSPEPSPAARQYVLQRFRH
T6 sequence (O96020 whole entry partner): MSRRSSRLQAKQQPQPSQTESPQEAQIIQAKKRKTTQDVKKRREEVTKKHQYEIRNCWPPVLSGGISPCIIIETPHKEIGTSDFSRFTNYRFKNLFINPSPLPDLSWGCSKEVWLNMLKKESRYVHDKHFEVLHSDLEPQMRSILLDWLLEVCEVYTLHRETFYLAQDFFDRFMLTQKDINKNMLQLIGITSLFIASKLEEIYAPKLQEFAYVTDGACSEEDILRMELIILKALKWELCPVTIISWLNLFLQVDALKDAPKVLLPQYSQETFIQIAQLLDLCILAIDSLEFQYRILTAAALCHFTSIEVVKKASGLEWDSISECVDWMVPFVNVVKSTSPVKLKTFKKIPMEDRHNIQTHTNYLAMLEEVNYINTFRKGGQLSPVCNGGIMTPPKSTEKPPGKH
T4 sequence (O94921 whole entry): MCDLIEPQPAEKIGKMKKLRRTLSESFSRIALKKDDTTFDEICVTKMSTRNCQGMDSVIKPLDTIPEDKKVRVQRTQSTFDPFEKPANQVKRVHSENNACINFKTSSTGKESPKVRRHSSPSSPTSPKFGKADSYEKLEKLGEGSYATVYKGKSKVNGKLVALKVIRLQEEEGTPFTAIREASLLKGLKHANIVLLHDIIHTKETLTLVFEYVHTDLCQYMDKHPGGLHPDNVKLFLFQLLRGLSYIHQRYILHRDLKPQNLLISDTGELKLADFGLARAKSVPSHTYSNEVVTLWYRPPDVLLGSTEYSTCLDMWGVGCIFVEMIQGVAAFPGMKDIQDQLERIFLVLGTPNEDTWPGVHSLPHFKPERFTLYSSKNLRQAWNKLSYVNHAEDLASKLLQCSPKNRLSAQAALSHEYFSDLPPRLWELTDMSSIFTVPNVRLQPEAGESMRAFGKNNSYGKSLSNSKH
T4 sequence (Q8ND76 whole entry partner): as the sequence (Q8ND76 whole entry partner) above
T1 sequence (Q00536 whole entry): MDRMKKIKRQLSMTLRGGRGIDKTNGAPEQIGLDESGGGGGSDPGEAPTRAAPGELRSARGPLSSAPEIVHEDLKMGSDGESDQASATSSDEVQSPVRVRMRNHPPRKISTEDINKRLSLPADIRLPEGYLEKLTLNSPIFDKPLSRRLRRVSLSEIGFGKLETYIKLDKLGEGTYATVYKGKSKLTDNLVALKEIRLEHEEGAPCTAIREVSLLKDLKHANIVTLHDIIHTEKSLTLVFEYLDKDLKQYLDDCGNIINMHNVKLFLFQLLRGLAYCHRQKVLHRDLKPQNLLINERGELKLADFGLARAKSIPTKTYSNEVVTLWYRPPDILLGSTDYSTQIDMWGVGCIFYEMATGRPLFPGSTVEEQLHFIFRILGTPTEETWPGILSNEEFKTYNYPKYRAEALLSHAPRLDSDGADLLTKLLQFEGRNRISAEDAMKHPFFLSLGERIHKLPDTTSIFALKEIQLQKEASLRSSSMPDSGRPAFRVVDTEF
T1 sequence (Q8ND76 whole entry partner): as the sequence (Q8ND76 whole entry partner) above
T3 sequence (P50750 whole entry): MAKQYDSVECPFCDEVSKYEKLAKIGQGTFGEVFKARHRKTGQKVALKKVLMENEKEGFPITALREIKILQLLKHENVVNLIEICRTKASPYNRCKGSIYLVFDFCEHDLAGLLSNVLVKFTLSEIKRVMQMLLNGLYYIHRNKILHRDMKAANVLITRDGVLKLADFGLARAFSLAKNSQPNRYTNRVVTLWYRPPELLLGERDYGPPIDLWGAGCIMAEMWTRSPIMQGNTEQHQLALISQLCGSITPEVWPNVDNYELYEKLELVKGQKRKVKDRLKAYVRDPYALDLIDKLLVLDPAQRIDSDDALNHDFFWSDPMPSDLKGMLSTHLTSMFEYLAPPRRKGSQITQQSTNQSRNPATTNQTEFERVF
T3 sequence (O60583 whole entry partner): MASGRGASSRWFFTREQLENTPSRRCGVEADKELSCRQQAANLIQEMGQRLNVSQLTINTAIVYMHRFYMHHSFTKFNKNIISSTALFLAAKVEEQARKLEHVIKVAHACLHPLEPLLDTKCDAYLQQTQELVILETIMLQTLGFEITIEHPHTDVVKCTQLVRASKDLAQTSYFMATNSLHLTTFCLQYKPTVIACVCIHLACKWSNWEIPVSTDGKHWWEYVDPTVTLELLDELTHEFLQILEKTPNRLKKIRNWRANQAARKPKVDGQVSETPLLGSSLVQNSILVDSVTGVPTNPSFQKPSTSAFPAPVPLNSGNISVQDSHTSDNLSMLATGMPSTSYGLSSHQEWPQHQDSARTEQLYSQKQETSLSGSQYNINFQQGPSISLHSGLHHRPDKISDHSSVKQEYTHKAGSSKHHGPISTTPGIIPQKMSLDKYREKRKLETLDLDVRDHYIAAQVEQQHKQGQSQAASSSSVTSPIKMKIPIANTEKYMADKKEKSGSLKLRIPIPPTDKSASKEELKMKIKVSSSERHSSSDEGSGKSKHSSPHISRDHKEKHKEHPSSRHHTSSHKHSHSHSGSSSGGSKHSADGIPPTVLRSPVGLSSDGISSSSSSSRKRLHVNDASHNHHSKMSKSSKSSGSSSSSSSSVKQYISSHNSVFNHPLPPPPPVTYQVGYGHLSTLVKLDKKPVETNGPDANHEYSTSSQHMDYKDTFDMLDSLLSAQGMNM
T2 sequence (Q07002 whole entry): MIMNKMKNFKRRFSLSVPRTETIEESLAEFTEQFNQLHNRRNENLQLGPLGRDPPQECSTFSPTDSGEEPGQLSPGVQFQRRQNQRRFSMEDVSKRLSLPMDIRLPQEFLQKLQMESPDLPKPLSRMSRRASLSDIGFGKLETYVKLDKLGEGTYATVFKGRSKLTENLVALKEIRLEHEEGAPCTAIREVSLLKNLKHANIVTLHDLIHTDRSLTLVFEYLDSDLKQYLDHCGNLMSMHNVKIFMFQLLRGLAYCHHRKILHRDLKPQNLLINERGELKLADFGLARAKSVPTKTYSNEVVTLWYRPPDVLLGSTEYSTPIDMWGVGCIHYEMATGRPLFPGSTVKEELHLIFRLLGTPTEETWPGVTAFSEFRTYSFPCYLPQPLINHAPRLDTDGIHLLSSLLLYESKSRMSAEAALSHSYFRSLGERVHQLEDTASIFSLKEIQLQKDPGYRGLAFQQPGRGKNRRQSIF
T2 sequence (Q8ND76 whole entry partner): as the sequence (Q8ND76 whole entry partner) above

## Nc1nc(N[C@H]2C[C@@H]3CC[C@H]2C3)sc1C(=O)c1ccccc1[N+](=O)[O-] (relative stereo) [MC180295]
[1]
  IC50: 1180 nM
[2]
  IC50: 1060 nM
[3]
  IC50: 3 nM
[4]
  IC50: 528 nM
[5]
  IC50: 438 nM
[6]
  IC50: 401 nM
[7]
  IC50: 80 nM
[8]
  IC50: 199 nM
[9]
  IC50: 624 nM
[10]
  IC50: 198 nM
[11]
  IC50: 75.6 nM
[12]
  IC50: 177 nM
[13]
  IC50: 343 nM
[14]
  IC50: 70.6 nM
[15]
  IC50: 211 nM
[16]
  IC50: 92.2 nM
[17]
  IC50: 137 nM
[18]
  IC50: 290 nM
[19]
  IC50: 43 nM
[20]
  IC50: 154 nM
[21]
  IC50: 92 nM
[22]
  IC50: 110 nM
[23]
  IC50: 141 nM
[24]
  IC50: 76.8 nM
[25]
  IC50: 77 nM
[26]
  IC50: 121 nM
[27]
  IC50: 102 nM
[28]
  IC50: 189 nM
[29]
  IC50: 98.1 nM
[30]
  IC50: 124 nM
[31]
  IC50: 103 nM
[32]
  IC50: 107 nM
[33]
  IC50: 28 nM
[34]
  IC50: 122 nM
[35]
  IC50: 250 nM
[36]
  IC50: 82.3 nM
[37]
  IC50: 112 nM
[38]
  IC50: 166 nM
[39]
  IC50: 305 nM
[40]
  IC50: 95.3 nM
[41]
  IC50: 44 nM
[42]
  IC50: 101 nM
[43]
  IC50: 143 nM
